These results are taken from US20090142369A1, “Method for preventing skin-cellular injury by using green algae extract and cosmetic composition containing green algae extract” (priority 2007, published 2009).

The test system of the test is fibroblasts. The test can be described thus: protective effects on UV-induced cytotoxicity (fibroblast survival rates). The test is classed as cell-based, human. The procedure: Green algae extracts (20 mg/ml and 10 mg/ml), Vitamin C, and Vitamin E treated fibroblasts are taken as subjects of the present experiment. The fibroblast survival rates are analyzed after 24, 48 and 72 hours of UV exposure and the results are quantified in the histogram.

`O=C1O[C@H]([C@@H](O)CO)C(O)=C1O` [Vitamin C]: the “fibroblast survival rate, as % of non-UV-exposed control” value by setting is: (Vitamin C 0.15 mM, after 24 hours of UV exposure) “about 53%”; (Vitamin C 0.15 mM, after 48 hours of UV exposure) roughly 29%; (Vitamin C 0.15 mM, after 72 hours of UV exposure) roughly 22%.
In the case of Vitamin E, the “fibroblast survival rate, as % of non-UV-exposed control” value is reported as “about 49%” (Vitamin E 25 μM, after 24 hours of UV exposure); roughly 27% (Vitamin E 25 μM, after 48 hours of UV exposure); roughly 23% (Vitamin E 25 μM, after 72 hours of UV exposure).
